# Assay results: patent publication US20040077881A1, “$G(d)1-pyrrolines used in pest control” (priority 2001, published 2004)
# Test system: larvae of the mustard beetle (Phaedon cochleariae)
# Experiment: Phaedon larvae test
# Assay type: in vivo
# Conditions: 168 h, cabbage leaves dipped, after 7 d, read-out: Kill rate in % after 7 d
# Protocol: [table] To produce a suitable preparation of active compound, 1 part by weight of active compound is mixed with the stated amounts of solvent and emulsifier, and the concentrate is diluted with emulsifier-containing water to the desired concentration. Cabbage leaves (Brassica oleracea) are treated by being dipped into the preparation of active compound of the desired concentration and are populated with larvae of the mustard beetle (Phaedon cochleariae) whilst the leaves are still moist. After the desired period of time, the kill in % is […]. 100% means that all beetle larvae have been killed; 0% means that none of the beetle larvae have been killed.
row,SMILES,pest or weed control at 1000 ppm
1,Fc1cccc(F)c1C1=NC(c2ccc(-c3ccc(OC(F)(F)F)cc3)cc2)CC1Cl (stereo not drawn) [drawing 57],100%
2,O=S(=O)(Oc1ccc(-c2ccc([C@H]3C[C@H](Cl)C(c4c(F)cccc4F)=N3)cc2)cc1)C(F)(F)F [drawing 64],100%
3,O=S(=O)(Oc1ccc([C@H]2CC(Cl)(Cl)C(c3c(F)cccc3F)=N2)cc1)C(F)(F)F [drawing 62],100%
4,Fc1cccc(F)c1C1=N[C@@H](c2ccc(-c3ccc(OC(F)(F)F)cc3)cc2)CC1(Br)Br [drawing 59],100%
5,O=S(=O)(Oc1ccc([C@H]2CC(Br)C(c3c(F)cccc3F)=N2)cc1)C(F)(F)F (stereo partly drawn) [drawing 63],100%
6,Fc1cccc(F)c1C1=N[C@@H](c2ccc(-c3ccc(OC(F)(F)F)cc3)cc2)C/C1=C\c1ccc(Br)cc1 [drawing 60],100%
7,Fc1cccc(F)c1C1=N[C@@H](c2ccc(-c3ccc(OC(F)(F)F)cc3)cc2)CC1(Cl)Cl [drawing 58],100%
8,O=S(=O)(Oc1ccc([C@H]2CC(Cl)C(c3c(F)cccc3F)=N2)cc1)C(F)(F)F (stereo partly drawn) [drawing 61],100%
9,Fc1cccc(F)c1C1=NC(c2ccc(-c3ccc(OC(F)(F)F)cc3)cc2)CC1(Cl)Cl (stereo not drawn) [drawing 56],100%

# Test system: not listed separately
# Experiment: logP determination by HPLC (EEC directive 79/831 Annex V.A8, reversed-phase C 18)
# Assay type: physicochemical
# Conditions: first HPLC peak of the mixture of diastereomers; reversed-phase C 18, 43° C., pH 2.3
# Protocol: The stated logP values were determined in accordance with EEC directive 79/831 Annex V.A8 by HPLC (High Performance Liquid Chromatography) using a reversed-phase column (C 18). Temperature: 43° C. In the acidic range, the determination was carried out at pH 2.3 using the mobile phases 0.1% aqueous phosphoric acid and acetonitrile; linear gradient from 10% acetonitrile to 90% acetonitrile.
row,SMILES,log P1
1,"O=S(=O)(O)C1CC(c2ccc(-c3ccc(OC(F)(F)F)cc3)cc2)N=C1c1c(F)cccc1F (stereo not drawn) [Example 13, 5-(2,6-difluorophenyl)-2-[4′-(trifluoromethoxy)-1,1′-biphenyl-4-yl]-3,4-dihydro-2H-pyrrole-4-sulphonic acid]",2.29

# Same assay, conditions: reversed-phase HPLC column (C 18), pH 2.3, HPLC, reversed-phase column (C 18), 43° C., pH 2.3, 0.1% aqueous phosphoric acid/acetonitrile; read-out: log P
row,SMILES,chromatographic logP
1,"CC1(C)CC(c2ccc(-c3ccc(OC(F)(F)F)cc3)cc2)N=C1c1c(F)cccc1F (stereo not drawn) [Example 11, 4,4-dimethyl-5-(2,6-difluorophenyl)-2-[4′-(trifluoromethoxy)-1,1′-biphenyl-4-yl]-3,4-dihydro-2H-pyrrole]",5.67
2,"CC(C)(C)OC(=O)NC(CC(C)(C)C(=O)c1c(F)cccc1F)c1ccc(-c2ccc(OC(F)(F)F)cc2)cc1 (stereo not drawn) [tert-butyl 4-(2,6-difluorophenyl)-3,3-dimethyl-4-oxo-1-[4′-(trifluoromethoxy)-1,1′-biphenyl-4-yl]butylcarbamate]",6.45
3,"Fc1cccc(F)c1C1=N[C@@H](c2ccc(-c3ccc(OC(F)(F)F)cc3)cc2)CC1=Cc1ccc(Br)cc1 [Example 14, (2R)-4-(4-bromobenzylidene)-5-(2,6-difluorophenyl)-2-[4′-(trifluoromethoxy)-1,1′-biphenyl-4-yl]-3,4-dihydro-2H-pyrrole]",6.43
4,"CCOS(=O)(=O)C1CC(c2ccc(-c3ccc(OC(F)(F)F)cc3)cc2)N=C1c1c(F)cccc1F (stereo not drawn) [Example 15, ethyl 5-(2,6-difluorophenyl)-2-[4′-(trifluoromethoxy)-1,1′-biphenyl-4-yl]-3,4-dihydro-2H-pyrrole-4-sulphonate]",4.77
5,"Fc1cccc(F)c1C1=NC(c2ccc(-c3ccc(OC(F)(F)F)cc3)cc2)CC1=Cc1ccccc1 (stereo not drawn) [Example 16, 4-benzylidene-5-(2,6-difluorophenyl)-2-[4′-(trifluoromethoxy)-1,1′-biphenyl-4-yl]-3,4-dihydro-2H-pyrrole]",5.77
6,"Fc1cccc(F)c1C1=N[C@@H](c2ccc(-c3ccc(OC(F)(F)F)cc3)cc2)CC1(Br)Br [Example 10, (2R)-4,4-dibromo-5-(2,6-difluorophenyl)-2-[4′-(trifluoromethoxy)-1,1′-biphenyl-4-yl]-3,4-dihydro-2H-pyrrole]",6.01
7,O=S(=O)(Oc1ccc([C@H]2CC(Cl)(Cl)C(c3c(F)cccc3F)=N2)cc1)C(F)(F)F [Example 5],4.88
8,"CC(C)C=C1CC(c2ccc(-c3ccc(OC(F)(F)F)cc3)cc2)N=C1c1c(F)cccc1F (stereo not drawn) [Example 17, 4-(2-methylpropylidene)-5-(2,6-difluorophenyl)-2-[4′-(trifluoromethoxy)-1,1′-biphenyl-4-yl]-3,4-dihydro-2H-pyrrole]",5.8
9,"Fc1cccc(F)c1C1=N[C@@H](c2ccc(-c3ccc(OC(F)(F)F)cc3)cc2)CC1(Cl)Cl [Example 6, (2R)-4,4-dichloro-5-(2,6-difluorophenyl)-2-[4′-(trifluoromethoxy)-1,1′-biphenyl-4-yl]-3,4-dihydro-2H-pyrrole]",5.91
10,"O=S(=O)(Oc1ccc([C@H]2CC(Br)(Br)C(c3c(F)cccc3F)=N2)cc1)C(F)(F)F [Example 9, 4-[(2R)-4,4-dibromo-5-(2,6-difluorophenyl)-3,4-dihydro-2H-pyrrol-2-yl]phenyl-trifluoromethanesulphonate]",4.97
11,"O=S(=O)(Oc1ccc(-c2ccc([C@H]3C[C@H](Cl)C(c4c(F)cccc4F)=N3)cc2)cc1)C(F)(F)F [Example 7, 4′-[(2R)-4-chloro-5-(2,6-difluorophenyl)-3,4-dihydro-2-yl]-1,1′-biphenyl-4-yl trifluoromethanesulphonate]",5.22

# Same assay, conditions: reversed-phase HPLC column (C 18), pH 2.3, first HPLC peak of the mixture of diastereomers; reversed-phase C 18, 43° C., pH 2.3; read-out: log P1
row,SMILES,chromatographic logP
1,"O=S(=O)(O)C1CC(c2ccc(-c3ccc(OC(F)(F)F)cc3)cc2)N=C1c1c(F)cccc1F (stereo not drawn) [Example 13, 5-(2,6-difluorophenyl)-2-[4′-(trifluoromethoxy)-1,1′-biphenyl-4-yl]-3,4-dihydro-2H-pyrrole-4-sulphonic acid]",2.32
2,"O=S(=O)(O)C1CC(c2ccc(Br)cc2)N=C1c1c(F)cccc1F (stereo not drawn) [Example 12, 2-(4-bromophenyl)-5-(2,6-difluorophenyl)-3,4-dihydro-2H-pyrrole-4-sulphonic acid]",1.4
3,"O=S(=O)(Oc1ccc([C@H]2CC(Cl)C(c3c(F)cccc3F)=N2)cc1)C(F)(F)F (stereo partly drawn) [Example 3, 4-[(2R)-4-chloro-5-(2,6-difluorophenyl)-3,4-dihydro-2H-pyrrol-2-yl]phenyl-trifluoromethanesulphonate]",4.34
4,"Fc1cccc(F)c1C1=NC(c2ccc(-c3ccc(OC(F)(F)F)cc3)cc2)CC1Cl (stereo not drawn) [Example 1, 4-chloro-5-(2,6-difluorophenyl)-2-[4′-(trifluoromethoxy)-1,1′-biphenyl-4-yl]-3,4-dihydro-2H-pyrrole]",5.31
5,"Fc1cccc(F)c1C1=N[C@@H](c2ccc(-c3ccc(OC(F)(F)F)cc3)cc2)CC1Cl (stereo partly drawn) [Example 2, (2R)-4-chloro-5-(2,6-difluorophenyl)-2-[4′-(trifluoromethoxy)-1,1′-biphenyl-4-yl]-3,4-dihydro-2H-pyrrole]",5.31
6,"O=S(=O)(Oc1ccc([C@H]2CC(Br)C(c3c(F)cccc3F)=N2)cc1)C(F)(F)F (stereo partly drawn) [Example 8, 4-[(2R)-4-bromo-5-(2,6-difluorophenyl)-3,4-dihydro-2-pyrrol-2-yl]phenyl-trifluoromethanesulphonate]",4.39

# Same assay, conditions: reversed-phase HPLC column (C 18), pH 2.3, second HPLC peak of the mixture of diastereomers; reversed-phase C 18, 43° C., pH 2.3; read-out: log P2
row,SMILES,chromatographic logP
1,"O=S(=O)(O)C1CC(c2ccc(-c3ccc(OC(F)(F)F)cc3)cc2)N=C1c1c(F)cccc1F (stereo not drawn) [Example 13, 5-(2,6-difluorophenyl)-2-[4′-(trifluoromethoxy)-1,1′-biphenyl-4-yl]-3,4-dihydro-2H-pyrrole-4-sulphonic acid]",2.46
2,"O=S(=O)(O)C1CC(c2ccc(Br)cc2)N=C1c1c(F)cccc1F (stereo not drawn) [Example 12, 2-(4-bromophenyl)-5-(2,6-difluorophenyl)-3,4-dihydro-2H-pyrrole-4-sulphonic acid]",1.6
3,"O=S(=O)(Oc1ccc([C@H]2CC(Br)C(c3c(F)cccc3F)=N2)cc1)C(F)(F)F (stereo partly drawn) [Example 8, 4-[(2R)-4-bromo-5-(2,6-difluorophenyl)-3,4-dihydro-2-pyrrol-2-yl]phenyl-trifluoromethanesulphonate]",4.49

# Same assay, conditions: reversed-phase HPLC column (C 18); HPLC, reversed-phase column (C 18), 43° C., pH 2.3, 0.1% aqueous phosphoric acid/acetonitrile; read-out: log P
row,SMILES,chromatographic logP
1,"CC(C)(C)OC(=O)N1C(=O)C(C)(C)CC1c1ccc(-c2ccc(OC(F)(F)F)cc2)cc1 (stereo not drawn) [tert-butyl 3,3-dimethyl-2-oxo-5-[4′-(trifluoromethoxy)-1,1′-biphenyl-4-yl]-1-pyrrolidinecarboxylate]",4.99

# Same assay, conditions: second HPLC peak of the mixture of diastereomers; reversed-phase C 18, 43° C., pH 2.3
row,SMILES,log P2
1,"O=S(=O)(Oc1ccc([C@H]2CC(Cl)C(c3c(F)cccc3F)=N2)cc1)C(F)(F)F (stereo partly drawn) [Example 3, 4-[(2R)-4-chloro-5-(2,6-difluorophenyl)-3,4-dihydro-2H-pyrrol-2-yl]phenyl-trifluoromethanesulphonate]",4.40
2,"Fc1cccc(F)c1C1=NC(c2ccc(-c3ccc(OC(F)(F)F)cc3)cc2)CC1Cl (stereo not drawn) [Example 1, 4-chloro-5-(2,6-difluorophenyl)-2-[4′-(trifluoromethoxy)-1,1′-biphenyl-4-yl]-3,4-dihydro-2H-pyrrole]",5.39
3,"Fc1cccc(F)c1C1=N[C@@H](c2ccc(-c3ccc(OC(F)(F)F)cc3)cc2)CC1Cl (stereo partly drawn) [Example 2, (2R)-4-chloro-5-(2,6-difluorophenyl)-2-[4′-(trifluoromethoxy)-1,1′-biphenyl-4-yl]-3,4-dihydro-2H-pyrrole]",5.39

# Test system: greenhouse red spider mite (Tetranychus urticae)
# Experiment: Tetranychus test (OP-resistant/dip treatment)
# Assay type: in vivo
# Conditions: 100 ppm, bean plants dipped, OP-resistant
# Protocol: [table] To produce a suitable preparation of active compound, 1 part by weight of active compound is mixed with the stated amounts of solvent and emulsifier, and the concentrate is diluted with emulsifier-containing water to the desired concentration. Bean plants (Phaseolus vulgaris) which are heavily infested by all stages of the greenhouse red spider mite (Tetranychus urticae) are dipped into a preparation of active compound of the desired concentration. After the desired period of time, the effect in % is determined. 100% means that all spider mites have been killed; 0% means that none of the spider mites have been killed.
row,SMILES,Kill rate in % after 7 d
1,Fc1cccc(F)c1C1=N[C@@H](c2ccc(-c3ccc(OC(F)(F)F)cc3)cc2)CC1(Cl)Cl [drawing 78],98%
2,O=S(=O)(Oc1ccc([C@H]2CC(Cl)(Cl)C(c3c(F)cccc3F)=N2)cc1)C(F)(F)F [drawing 82],95%
3,Fc1cccc(F)c1C1=N[C@@H](c2ccc(-c3ccc(OC(F)(F)F)cc3)cc2)CC1(Br)Br [drawing 79],98%
4,O=S(=O)(Oc1ccc(-c2ccc([C@H]3C[C@H](Cl)C(c4c(F)cccc4F)=N3)cc2)cc1)C(F)(F)F [drawing 83],98%
5,O=S(=O)(Oc1ccc([C@H]2CC(Br)C(c3c(F)cccc3F)=N2)cc1)C(F)(F)F (stereo partly drawn) [drawing 81],98%
6,Fc1cccc(F)c1C1=NC(c2ccc(-c3ccc(OC(F)(F)F)cc3)cc2)CC1(Cl)Cl (stereo not drawn) [drawing 76],98%
7,Fc1cccc(F)c1C1=N[C@@H](c2ccc(-c3ccc(OC(F)(F)F)cc3)cc2)C/C1=C\c1ccc(Br)cc1 [drawing 80],98%
8,Fc1cccc(F)c1C1=NC(c2ccc(-c3ccc(OC(F)(F)F)cc3)cc2)CC1Cl (stereo not drawn) [drawing 77],98%
